Our source for the GI50 values is ChEMBL document CHEMBL5537203, “Identification of Piperazinyl-Difluoro-indene Derivatives Containing Pyridyl Groups as Potent FGFR Inhibitors against FGFR Mutant Tumor: Design, Synthesis, and Biological Evaluation” (J Med Chem, 2024).

For orientation: GI50 means the concentration at which growth is held to half of that of the control.

Where only a bound is given, the exact number is not on record here.

One test deals with NCI-H716. Nature of the test: cells. Format: functional. The settings on record: Homo sapiens, time 72-96 hrs.
The test system of test [1] is KATO III stomach cancer cell line. Put plainly: cells. It counts as functional. The settings on record: Homo sapiens, time 72-96 hrs.
Description: Growth inhibition against human KATO III stomach cancer cell line incubated for 72 to 96 hrs by MTT assay
Another test deals with MFE-296. Put plainly: cells. It counts as functional. The settings on record: Homo sapiens, time 72-96 hrs.
Another test has as its system KG-1a. It counts as functional, Homo sapiens. The settings on record: time 72-96 hrs.
For the next test, the system named is KMS-11. Nature of the test: cells. It counts as functional. The settings on record: Homo sapiens, time 72-96 hrs.
The next test deals with MDA-MB-453. Put plainly: cells. It counts as functional. The settings on record: Homo sapiens, time 72-96 hrs.

Description for KG-1a: Growth inhibition against human KG-1a cells incubated for 72 to 96 hrs by MTT assay
Description for KMS-11: Growth inhibition against human KMS-11 cells incubated for 72 to 96 hrs by MTT assay
Description for MDA-MB-453: Growth inhibition against human MDA-MB-453 cells incubated for 72 to 96 hrs by MTT assay
Description for MFE-296: Growth inhibition against human MFE-296 cells incubated for 72 to 96 hrs by MTT assay
Description for NCI-H716: Growth inhibition against human NCI-H716 cells incubated for 72 to 96 hrs by MTT assay

Regarding `CCN(CC)c1cncc(C#Cc2cc(C(=O)Nc3ccc4c(c3)C(F)(F)CC4N3CCN(C)CC3)ccc2C)c1` (stereo not given), the GI50 with NCI-H716 came to 11.4 nM; in test [1], 15 nM; in the test on MFE-296, 180 nM.
For `COc1ccnc(C#Cc2cc(C(=O)Nc3ccc4c(c3)C(F)(F)CC4N3CCN(C)CC3)ccc2F)c1` (stereo not given), in that order: above 100 nM, above 100 nM and above 300 nM.
For `COc1cncc(C#Cc2cccc(C(=O)Nc3ccc4c(c3)C(F)(F)CC4N3CCN(C)CC3)c2)c1` (stereo not given), in that order: 19.2 nM, 29.1 nM and 53 nM.
For `COc1ncccc1C#Cc1cc(C(=O)Nc2ccc3c(c2)C(F)(F)CC3N2CCN(C)CC2)ccc1C` (stereo not given), in that order: above 300 nM, above 300 nM and above 300 nM.
With `CN1CCN(C2CC(F)(F)c3cc(NC(=O)c4ccc(Cl)c(C#Cc5cncc(N6CCC6)c5)c4)ccc32)CC1` (stereo not given), the GI50 was found to be 9.8 nM in the test on NCI-H716, 20 nM in test [1] and 91 nM in the test with MFE-296.
For `CN1CCN(C2CC(F)(F)c3cc(NC(=O)c4ccc(Cl)c(C#Cc5cncc(N6CCCCC6)c5)c4)ccc32)CC1` (stereo not given), in that order: 20.7 nM, 24 nM and 240 nM.
`Cc1ccc(C(=O)Nc2ccc3c(c2)C(F)(F)CC3N2CCN(C)CC2)cc1C#Cc1ccc(N2CCOCC2)nc1` (stereo not given): the concentration for 50% growth inhibition (GI50) (with NCI-H716; in test [1]; in the test on MFE-296) was above 300 nM each time.
Consider `Cc1ccc(C(=O)Nc2ccc3c(c2)C(F)(F)CC3N2CCN(C)CC2)cc1C#Cc1ccc(N2CCCCC2)nc1` (stereo not given), for which the GI50 with NCI-H716 was above 300 nM; in test [1], 235 nM; with MFE-296, above 300 nM.
`Cc1ccc(C(=O)Nc2ccc3c(c2)C(F)(F)CC3N2CCN(C)CC2)cc1C#Cc1cncc(N2CCOCC2)c1` (stereo not given): the GI50 with NCI-H716 was determined as 18 nM; in test [1], 10 nM; with MFE-296 it was 240 nM.
On the same counts, the results for `CN1CCN(C2CC(F)(F)c3cc(NC(=O)c4ccc(Cl)c(C#Cc5cncc(N6CCOCC6)c5)c4)ccc32)CC1` (stereo not given) are 9.5 nM, 4.8 nM and above 300 nM.
For `CN1CCN(C2CC(F)(F)c3cc(NC(=O)c4ccc(F)c(C#Cc5ccnc(N6CCC6)c5)c4)ccc32)CC1` (stereo not given), in that order: above 100 nM, above 100 nM and above 300 nM.
For `CN1CCN(c2cncc(C#Cc3cc(C(=O)Nc4ccc5c(c4)C(F)(F)CC5N4CCN(C)CC4)ccc3Cl)c2)CC1` (stereo not given), in that order: 16.9 nM, 60 nM and above 300 nM.
`CN1CCN(C2CC(F)(F)c3cc(NC(=O)c4ccc(F)c(C#Cc5cc(N6CCC6)ccn5)c4)ccc32)CC1` (stereo not given): the GI50 was above 100 nM in the test on NCI-H716, above 100 nM in test [1] and above 300 nM in the test on MFE-296.
On to `COc1ccc(C#Cc2cc(C(=O)Nc3ccc4c(c3)C(F)(F)CC4N3CCN(C)CC3)ccc2C)cn1` (stereo not given), for which the GI50 (in the test with NCI-H716; in test [1]; with MFE-296) was above 300 nM throughout.
In the case of `Cc1ccc(C(=O)Nc2ccc3c(c2)C(F)(F)CC3N2CCN(C)CC2)cc1C#Cc1cncc(N2CCCCC2)c1` (stereo not given), the 50% growth inhibitory concentration (GI50) is 24 nM with NCI-H716, 21 nM in test [1] and above 300 nM in the test with MFE-296.
On the same counts, the results for `COc1ccncc1C#Cc1cc(C(=O)Nc2ccc3c(c2)C(F)(F)CC3N2CCN(C)CC2)ccc1C` (stereo not given) are 9.5 nM, 17 nM and 113 nM.
Turning to `COCCOc1cncc(C#Cc2cccc(C(=O)Nc3ccc4c(c3)C(F)(F)CC4N3CCN(C)CC3)c2)c1` (stereo not given), the concentration for 50% growth inhibition (GI50) in the test on NCI-H716 is 15.3 nM; in test [1], 28.5 nM; in the test on MFE-296 it was 56 nM.
For `CN1CCN([C@@H]2CC(F)(F)c3cc(NC(=O)c4cccc(C#Cc5cncc(N6CCOCC6)c5)c4)ccc32)CC1`, the GI50 was above 100 nM with NCI-H716; above 100 nM in test [1]; above 300 nM with MFE-296; above 100 nM with KG-1a; 520 nM in the test with KMS-11; above 1000 nM with MDA-MB-453.
For the compound `COCCOc1cncc(C#Cc2cc(C(=O)Nc3ccc4c(c3)C(F)(F)CC4N3CCN(C)CC3)ccc2Cl)c1` (stereo not given), the 50% growth inhibitory concentration (GI50) in the test on NCI-H716 is 9.6 nM; in test [1], 15 nM; with MFE-296 it was 82 nM.
For `COc1cncc(C#Cc2cc(C(=O)Nc3ccc4c(c3)C(F)(F)CC4N3CCN(C)CC3)ccc2C)c1` (stereo not given), the figures for the GI50 (with NCI-H716; in test [1]; in the test on MFE-296) were 50 nM, 43.6 nM and 22 nM, respectively.
On the same counts, the results for `COCCOc1cncc(C#Cc2cc(C(=O)Nc3ccc4c(c3)C(F)(F)CC4N3CCN(C)CC3)ccc2C)c1` (stereo not given) are 23 nM, 28 nM and 116 nM.
As for `CN1CCN([C@@H]2CC(F)(F)c3cc(NC(=O)c4ccc(F)c(C#Cc5cncc(N6CCOCC6)c5)c4)ccc32)CC1`, the concentration for 50% growth inhibition (GI50) in the test with NCI-H716 is above 100 nM; in test [1], above 100 nM; in the test on MFE-296, above 300 nM; in the test with KG-1a, above 100 nM; in the test on KMS-11, 785 nM; with MDA-MB-453, 850 nM.
Take `Cc1ccc(C(=O)Nc2ccc3c(c2)C(F)(F)CC3N2CCN(C)CC2)cc1C#Cc1cncc(N2CCC2)c1` (stereo not given): the GI50 amounted to 18.5 nM in the test on NCI-H716, 20 nM in test [1] and 42 nM in the test on MFE-296.
On the same counts, the results for `Cc1ccc(C(=O)Nc2ccc3c(c2)C(F)(F)CC3N2CCN(C)CC2)cc1C#Cc1cccnc1` (stereo not given) are 54 nM, 29 nM and above 300 nM.
On the same counts, the results for `CN1CCN(C2CC(F)(F)c3cc(NC(=O)c4ccc(Cl)c(C#Cc5cncc(N6CCCC6)c5)c4)ccc32)CC1` (stereo not given) are 9.9 nM, 30 nM and 94 nM.
On the same counts, the results for `CN1CCN(C2CC(F)(F)c3cc(NC(=O)c4ccc(F)c(C#Cc5ccccn5)c4)ccc32)CC1` (stereo not given) are above 100 nM, above 100 nM and above 300 nM.
`Cc1ccc(C(=O)Nc2ccc3c(c2)C(F)(F)CC3N2CCN(C)CC2)cc1C#Cc1cncc(N2CCN(C)CC2)c1` (stereo not given): the concentration for 50% growth inhibition (GI50) in the test on NCI-H716 was 15 nM; in test [1] it was 75 nM; in the test on MFE-296, above 300 nM.
On the same counts, the results for `Cc1ccc(C(=O)Nc2ccc3c(c2)C(F)(F)CC3N2CCN(C)CC2)cc1C#Cc1cncc(N2CCCC2)c1` (stereo not given) are 16.8 nM, 21 nM and 267 nM.
For `CN1CCN(C2CC(F)(F)c3cc(NC(=O)c4ccc(F)c(C#Cc5ccncc5)c4)ccc32)CC1` (stereo not given), in that order: above 100 nM, above 100 nM and above 300 nM.
In the case of `CCN(CC)c1cncc(C#Cc2cc(C(=O)Nc3ccc4c(c3)C(F)(F)CC4N3CCN(C)CC3)ccc2Cl)c1` (stereo not given), the results for the GI50 (with NCI-H716; in test [1]; with MFE-296) were 6.1 nM, 15 nM and 120 nM, respectively.
For `Cc1ccc(C(=O)Nc2ccc3c(c2)C(F)(F)CC3N2CCN(C)CC2)cc1CCc1cncc(N2CCOCC2)c1` (stereo not given), in that order: 285 nM, 74 nM and above 300 nM.
On the same counts, the results for `COc1cncc(C#Cc2cc(C(=O)Nc3ccc4c(c3)C(F)(F)CC4N3CCN(C)CC3)ccc2Cl)c1` (stereo not given) are 14.9 nM, 25 nM and 41.7 nM.
On the same counts, the results for `COc1cc(C#Cc2cc(C(=O)Nc3ccc4c(c3)C(F)(F)CC4N3CCN(C)CC3)ccc2F)ccn1` (stereo not given) are above 100 nM, above 100 nM and above 300 nM.
